Target: T1, human vasopressin V2 receptor subtype (Homo sapiens, UniProt P30518)
T1 construct: host or cells: CHO cells, stably transfected (pZeoSV vector); membranes
Assay: Vasopressin binding in CHO cell membranes expressing human vasopressin V2 subtype receptors ([3H]arginine vasopressin)
Conditions: for IC50: values in parentheses
Excerpt: Vasopressin Binding in Chinese Hamster Ovary Cell Membranes Expressing Human Vasopressin V2 Subtype Receptors
Chinese Hamster Ovary (CHO) cells stably transfected with the human V2 subtype receptors were obtained from M. Thibonnier, Case Western Reserve University School of Medicine, Cleveland, Ohio.
A. Passaging and Amplification of Cells:
CHO cells transfected with the human vasopressin V2 subtype receptors obtained from M. Thibonnier (pZeoSV vector) are allowed to grow to confluency (approx. >90%) in T-150 flasks under sterile conditions, in a cell culture medium of F-12 Nutrient Mixture (HAM) with L-glutamine (Gibco Cat. #11765-054) containing 15 mM HEPES (Gibco Cat. #15630-080), 1% antibiotic/antimycotic (add 5 mL 100×, Gibco Cat. #15240-062 per 500 mL F-12), 250 μg/mL Zeocin (add 1.25 mL of 100 mg/mL Invitrogen R-250-01 per 500 mL F-12) and 10% Fetal Bovine Serum (Qualified, heat inactivated, Gibco Cat. #16140-063). The medium is removed by aspiration and the cells washed with 10 mL of Hank's Balanced Salt solution (Gibco Cat. #14175-095). The salt solution is removed by aspiration and the cells trypsinized with 5 mL of trypsin-EDTA (0.05% trypsin, 0.53 mM EDTA-4Na, Gibco Cat. #25300-070) for 1 min. The trypsin is removed by aspiration and the cells dislodged by tapping. Cell Culture medium (e.g. 30 mL for 1:30 split) is immediately added and mixed well to inactivate trypsin. 1 mL of detached cells is added to new culture flasks containing fresh Cell Culture medium (e.g. into 25 mL per T-150 flask), and mixed gently. The cells are incubated at 37° C. in 5% CO2. The medium is changed at 3 to 4 day interval (or as appropriate). The cells grow to confluency (approx. >75%–95%) within 7–8 days. All steps are done under sterile conditions. B. Membrane Preparation: The cells are washed twice gently with Hank's Balanced Salt solution (e.g. use 10 mL per T-150 flask). The excess solution is removed and the cells bathed for 15–30 min. in an enzyme-free Cell Dissociation Buffer (e.g. use 8 mL Hank's Based, Gibco Cat. # 13150-016 per T-150 flask) until cells are loosened. The contents are transferred to centrifuge tubes (50 mL size) kept in ice bath. All subsequent steps are done at 4° C. The tubes are centrifuged at 300×g for 15 min (1380 rpm on SORVAL, Model RT6000D, using rotor for 50 mL tubes). The supernatant is discarded and the cells suspended in homogeneizing buffer (10 mM Tris-HCl containing 0.25 M sucrose and 1 mM EDTA, pH 7.4) ensuring that the volume of the buffer is about ten times the volume of the cell pellet. The cells are pooled into a centrifuge tube (50 mL) and homogenized with Polytron at setting 6 for 10 sec. The homogenate is transferred into a Potter-Elvjehm homogeneizer and homogenized with 3 strokes. The homogenate is centrifuged at 1500×g for 60 min at 4° C. (3100 rpm using SORVAL, model RT6000D, using rotor for 50 mL tubes). The pellet is discarded. The supernatant is centrifuged at 100,000×g for 60 min. at 4° C. (Beckman L8-80M ultracentrifuge; spin at 37,500 rpm with rotor type 70 Ti for 50 mL tubes; 38,000 rpm with type 80Ti for 15 mL tubes; or 35,800 rpm with rotor type 45Ti). The supernantant is discarded and the pellet suspended in 3 to 4 mL of Tris buffer (50 mM TRIS-HCl, pH 7.4). The protein content is estimated by the Bradford or Lowry method. The volume of the membrane suspension is adjusted with the membrane buffer (50 mM Tris-HCl containing 0.1% BSA and 0.1 mM PMSF) to give 3.0 mg/mL (or as appropriate) of protein. The membranes are aliquoted and stored at −70° C. C. Radioligand Binding Assay:
In wells of a 96-well format microtiter plate, is added 90, 110 or 130 μL (to make up a final volume of 200 μL) of assay buffer containing 50 mM of Tris-HCl (pH 7.4), […], 1 mg % aprotinin, 1 mg % leupeptin, 2 mg % 1,10-phenanthroline, 10 mg % trypsin inhibitor, and 0.1 mM PMSF. The inhibitors are added on the day of the experiment. […]

[1] = 100 nM, values without parentheses

T1 sequence (P30518 whole entry): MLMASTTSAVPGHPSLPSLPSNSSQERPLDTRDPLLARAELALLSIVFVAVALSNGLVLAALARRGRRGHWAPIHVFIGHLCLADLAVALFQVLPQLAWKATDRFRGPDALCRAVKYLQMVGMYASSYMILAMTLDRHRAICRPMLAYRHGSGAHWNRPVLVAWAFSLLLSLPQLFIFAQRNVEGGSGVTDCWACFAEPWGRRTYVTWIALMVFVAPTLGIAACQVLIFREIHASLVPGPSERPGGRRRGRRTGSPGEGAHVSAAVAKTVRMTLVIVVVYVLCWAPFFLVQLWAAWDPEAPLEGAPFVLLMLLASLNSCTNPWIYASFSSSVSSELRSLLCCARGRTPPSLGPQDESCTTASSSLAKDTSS

inhibition at 0.1 µM [1] [%] | Structure (SMILES) | other results
90 | O=C(c1ccc(C2=CCCc3ccccc32)cc1Cl)N1Cc2cccn2Cc2ccccc21 [Example 11, (10,11-Dihydro-5H-pyrrolo[2,1-c][1,4]benzodiazepin-10-yl)-[2-chloro-4-(3,4-dihydro-naphthalen-1-yl)-phenyl]-methanone] | 
 | O=C(c1ccc(C2=CCC3CCC2C3)cc1)N1Cc2cccn2Cc2ccccc21 (centres unmarked) [Example 21] | V2 % inhibition @ 100 nM [1]: 5%
 | CC1CCCC=C1c1ccc(C(=O)N2Cc3cccn3Cc3ccccc32)cc1 (centres unmarked) [Example 16, (10,11-Dihydro-5H-pyrrolo[2,1-c][1,4]benzodiazepin-10-yl)-[4-(6-methyl-cyclohex-1-en-1-yl)-phenyl]-methanone] | IC50: 0.295 µM
58 | CC1=C(c2ccc(C(=O)N3Cc4cccn4Cc4ccccc43)cc2)CCCC1O (centres unmarked) [Example 27, (10,11-Dihydro-5H-pyrrolo[2,1-c][1,4]benzodiazepin-10-yl)-[4-(3-hydroxy-2-methyl-cyclohex-1-en-1-yl)-phenyl]-methanone] | 
61 | O=C(c1ccc(C2=CCCc3ccccc32)cc1)N1Cc2cccn2Cc2ccccc21 [Example 18, (10,11-Dihydro-5H-pyrrolo[2,1-c][1,4]benzodiazepin-10-yl)-[4-(3,4-dihydro-naphthalen-1-yl)-phenyl]-methanone] | 
29 | O=C1C=C(c2ccc(C(=O)N3Cc4cccn4Cc4ccccc43)cc2)CCC1 [Example 24, 3-[4-(10,11-Dihydro-5H-pyrrolo[2,1-c][1,4]benzodiazepine-10-carbonyl)-phenyl]-cyclohex-2-en-1-one] | 
74 | CC1=C(c2ccc(C(=O)N3Cc4cccn4Cc4ccccc43)cc2C)CCCC1=O [Example 4, 3-[2-Methyl-4-(5H-pyrrolo[2,1-c][1,4]benzodiazepin-10(11H)-yl-carbonyl)phenyl]-2-methyl-cyclohex-2-en-1-one] | 
4 | Cc1cc(C(=O)N2Cc3cccn3Cc3ccccc32)ccc1C1=CCCCC1C(C)(C)C (centres unmarked) [Example 34, (10,11-Dihydro-5H-pyrrolo[2,1-c][1,4]benzodiazepin-10-yl)-[4-(6-tert-butyl-cyclohex-1-en-1-yl)-3-methyl-phenyl]-methanone] | 
77 | COc1cc(C2=CCCc3ccccc32)c(Cl)cc1C(=O)N1Cc2cccn2Cc2ccccc21 [Example 8, 10-[5-Chloro-4-(3,4-dihydro-naphthalen-1-yl)-2-methoxybenzoyl]-10,11-dihydro-5H-pyrrolo[2,1-c][1,4]benzodiazepine] | 
82 | CC1(C)CCCC=C1c1ccc(C(=O)N2Cc3cccn3Cc3ccccc32)c(Cl)c1 [Example 12, (10,11-Dihydro-5H-pyrrolo[2,1-c][1,4]benzodiazepin-10-yl)-[2-chloro-4-(6,6-dimethyl-cyclohex-1-en-1-yl)-phenyl]-methanone] | 
40 | CC1=C(c2ccc(C(=O)N3Cc4cccn4Cc4ccccc43)cc2C)CCC[C@H]1O (single isomer, unassigned) [Example 41] | 
 | O=C(c1ccc(C2=CCCCC2)cc1)N1Cc2cccn2Cc2ccccc21 [Example 15, (10,11-Dihydro-5H-pyrrolo[2,1-c][1,4]benzodiazepin-10-yl)-(4-cyclohex-1-en-1-yl-phenyl)-methanone] | IC50: 0.774 µM
-9 | COc1cccc(C2=C(c3ccc(C(=O)N4Cc5cccn5Cc5ccccc54)cc3C)CCCC2)c1 [Example 38, (10,11-Dihydro-5H-pyrrolo[2,1-c][1,4]benzodiazepin-10-yl)-{4-[2-(3-methoxy-phenyl)-cyclohex-1-en-1-yl]-3-methyl-phenyl}-methanone] | 
18 | CC1(C)C=C(c2ccc(C(=O)N3Cc4cccn4Cc4ccccc43)cc2)CC(C)(C)C1 [Example 23, (10,11-Dihydro-5H-pyrrolo[2,1-c][1,4]benzodiazepin-10-yl)-[4-(3,3,5,5-tetramethyl-cyclohex-1-en-1-yl)-phenyl]-methanone] | 

Reference: patent US7022699B2, “Cyclohexenyl phenyl diazepines vasopressin and oxytocin receptor modulators” (Wyeth, priority 2001, dated 2006)
